{"source": "paper PMC6199744", "about": "“Development of Chemical Proteomics for the Folateome and Analysis of the Kinetoplastid Folateome” (ACS Infectious Diseases, 2018)", "system": "L. major lysate proteins", "experiment": "Multitargeted bead mixture chemoproteomics, single concentration competition, proteome-wide", "type": "binding", "settings": "for fold change: vehicle control = 1"}
{"smiles": "Nc1nc2c(c(=O)[nH]1)N(C=O)C(CNc1ccc(C(=O)N[C@@H](CCC(=O)O)C(=O)O)cc1)CN2", "note": "(stereo partly drawn) [LEU, leucovorin]", "values": [{"measurement": "fold change vs vehicle control", "setting": "protein LMJF.28.0490 PROPIONYL-COA C[…] CHAIN, PUTATIVE", "value": 1.09}, {"measurement": "fold change", "setting": "protein LMJF.28.0710 HYPOTHETICAL PROTEIN, CONSERVED (SNARE associated Golgi protein, putative)", "value": 0.76}, {"measurement": "fold change vs vehicle control", "setting": "protein LMJF.28.0930 HYPOTHETICAL PROTEIN, CONSERVED", "value": 0.9}, {"measurement": "fold change vs vehicle control", "setting": "protein LMJF.28.0960 40S RIBOSOMAL PROTEIN S14", "value": 1.06}, {"measurement": "fold change vs vehicle control", "setting": "protein LMJF.28.1530 ATP DEPENDENT DEAD-BOX HELICASE, PUTATIVE", "value": 0.95}, {"measurement": "fold change relative to vehicle control", "setting": "protein LMJF.28.1730, […]-ATP-ASE SUBUNIT 2, PUTATIVE", "value": 1.27}, {"measurement": "fold change vs vehicle control", "setting": "protein LMJF.28.2430 VACUOLAR ATP SYNTHASE SUBUNIT B, PUTATIVE", "value": 1.01}, {"measurement": "fold change relative to vehicle control", "setting": "protein LMJF.28.2770, HEAT-SHOCK PROTEIN HSP70, PUTATIVE", "value": 1.32}, {"measurement": "fold change", "setting": "protein LMJF.28.2910 GLUTAMATE DEHYDROGENASE, PUTATIVE", "value": 1.1}, {"measurement": "fold change vs vehicle control", "setting": "protein LMJF.29.0120 […]-ATPASE SUBUNIT, PUTATIVE", "value": 1.15}, {"measurement": "fold change", "setting": "protein LMJF.29.0620 ATP-BINDING CASSETTE PROTEIN SUBFAMILY A, MEMBER 10, PUTATIVE", "value": 0.8}, {"measurement": "fold change vs vehicle control", "setting": "protein LMJF.29.0760 […] BI[…], PUTATIVE,HEAT SHOCK PROTEIN 90, PUTATIVE", "value": 1.05}, {"measurement": "fold change relative to vehicle control", "setting": "protein LMJF.29.0850, HIGH MOBILITY GROUP PROTEIN HOMOLOG TDP-1, PUTATIVE", "value": 2.2}, {"measurement": "fold change vs vehicle control", "setting": "protein LMJF.29.0940 HY[…], CONSERVED", "value": 1.06}, {"measurement": "fold change vs vehicle control", "setting": "protein LMJF.29.1160 TRYPAREDOXIN", "value": 1.05}, {"measurement": "fold change vs vehicle control", "setting": "protein LMJF.29.1240 HYPOTHETICAL PROTEIN, UNKNOWN FUNCTION", "value": 0.99}, {"measurement": "fold change vs vehicle control", "setting": "protein LMJF.29.1270 100 kDa heat shock protein (Hsp100)", "value": 0.99}, {"measurement": "fold change vs vehicle control", "setting": "protein LMJF.29.1310 CARNITINE/CHOLINE ACETYLTRANSFERASE, PUTATIVE", "value": 0.93}, {"measurement": "fold change relative to vehicle control", "setting": "protein LMJF.29.1760, PAR[…] PROTEIN 1D, PUTATIVE", "value": 1.22}, {"measurement": "fold change vs vehicle control", "setting": "protein LMJF.29.1780 D[…] PROTEIN, PUTATIVE", "value": 1.01}, {"measurement": "fold change", "setting": "protein LMJF.29.2200 GTP-BINDING PROTEIN, PUTATIVE (dynamin-1-like protein)", "value": 0.99}, {"measurement": "fold change", "setting": "protein LMJF.29.2310 ENOYL-COA HYDRATASE/ISOMERASE-LIKE PROTEIN", "value": 0.93}, {"measurement": "fold change vs vehicle control", "setting": "protein LMJF.29.2360 ASPARTYL AMINOPEPTIDASE, PUTATIVE,METALLO-PEPTIDASE, CLAN MH, FAMILY M20", "value": 1.08}, {"measurement": "fold change", "setting": "protein LMJF.29.2860 40S RIBOSOMAL PROTEIN S19-LIKE PROTEIN", "value": 1.01}, {"measurement": "fold change", "setting": "protein LMJF.30.0580 HYPOTHETICAL PROTEIN, CONSERVED (AMP-binding enzyme, putative)", "value": 0.99}, {"measurement": "fold change", "setting": "protein LMJF.30.0850 SURFACE PROTEIN AMASTIN, PUTATIVE", "value": 0.99}, {"measurement": "fold change vs vehicle control", "setting": "protein LMJF.30.1250 PYRIDOXAL KINASE, PUTATIVE", "value": 1.08}, {"measurement": "fold change vs vehicle control", "setting": "protein LMJF.30.2580 RETICULON DOMAIN PROTEIN, 22 KDA POTENTIALLY AGGRAVATING PROTEIN (PAPLE22)", "value": 0.97}, {"measurement": "fold change relative to vehicle control", "setting": "protein LMJF.30.3090, HY[…], CONSERVED (RNA-binding protein 42, putative)", "value": 1.16}, {"measurement": "fold change vs vehicle control", "setting": "protein LMJF.30.3240 GLUTAMYL-TRNA SYNTHETASE, PUTATIVE", "value": 0.9}, {"measurement": "fold change", "setting": "protein LMJF.30.3380 PAS-DOMAIN CONTAINING PHOSPHOGLYCERATE KINASE, PUTATIVE", "value": 0.97}, {"measurement": "fold change", "setting": "protein LMJF.30.3430 HYPOTHETICAL PROTEIN, CONSERVED (protein mkt1, putative)", "value": 0.93}, {"measurement": "fold change", "setting": "protein LMJF.30.3520 S-ADENOSYLMETHIONINE SYNTHETASE", "value": 0.9}, {"measurement": "fold change", "setting": "protein LMJF.30.3570 ZINC FINGER-DOMAIN PROTEIN, PUTATIVE", "value": 0.81}, {"measurement": "fold change relative to vehicle control", "setting": "protein LMJF.31.0080, HY[…], CONSERVED", "value": 1.25}, {"measurement": "fold change vs vehicle control", "setting": "protein LMJF.31.0340 AMINO ACID PERMEASE, PUTATIVE", "value": 1.03}, {"measurement": "fold change", "setting": "protein LMJF.31.1130 N-ACYL-L-AMINO ACID AMIDOHYDROLASE, PUTATIVE", "value": 1}, {"measurement": "fold change vs vehicle control", "setting": "protein LMJF.31.1640 THIOLASE PROTEIN-LIKE PROTEIN", "value": 1.02}, {"measurement": "fold change relative to vehicle control", "setting": "protein LMJF.31.2150, PROSTAGLANDIN F2-ALPHA SYNTHASE/D-ARABINOSE DEHYDROGENASE", "value": 1.25}, {"measurement": "fold change vs vehicle control", "setting": "protein LMJF.31.2250 3,2-TRANS-ENOYL-COA ISOMERASE, MIT[…], PUTATIVE", "value": 0.92}, {"measurement": "fold change vs vehicle control", "setting": "protein LMJF.32.0750 RNA BINDING PROTEIN, PUTATIVE", "value": 1.05}, {"measurement": "fold change vs vehicle control", "setting": "protein LMJF.32.1060 DYNEIN, PUTATIVE", "value": 1.02}, {"measurement": "fold change relative to vehicle control", "setting": "protein LMJF.32.1820, IRON […], PUTATIVE", "value": 1.22}, {"measurement": "fold change relative to vehicle control", "setting": "protein LMJF.32.2320, C-14 STEROL REDUCTASE, PUTATIVE", "value": 1.12}, {"measurement": "fold change vs vehicle control", "setting": "protein LMJF.32.3870 MYOSIN XXI", "value": 0.9}, {"measurement": "fold change relative to vehicle control", "setting": "protein LMJF.33.0240, THIOL-DEPENDENT REDUCTASE 1", "value": 1.13}, {"measurement": "fold change", "setting": "protein LMJF.33.0280 HYPOTHETICAL PROTEIN, CONSERVED", "value": 0.89}, {"measurement": "fold change relative to vehicle control", "setting": "protein LMJF.33.0890, HY[…], CONSERVED", "value": 0.98}, {"measurement": "fold change vs vehicle control", "setting": "protein LMJF.33.1070 HY[…], UNKNOWN FUNCTION", "value": 1.03}, {"measurement": "fold change vs vehicle control", "setting": "protein LMJF.33.1330 CYSTEINE CONJUGATE BETA-LYASE, AMINOTRANSFERASE- LIKE PROTEIN", "value": 0.87}, {"measurement": "fold change", "setting": "protein LMJF.33.1590 HY[…], CONSERVED (3-ketoacyl-CoA reductase, putative)", "value": 1.46}, {"measurement": "fold change relative to vehicle control", "setting": "protein LMJF.33.1860, ATP-BINDING CASSETTE PROTEIN SUBFAMILY D, MEMBER 3, PUTATIVE", "value": 1.04}, {"measurement": "fold change relative to vehicle control", "setting": "protein LMJF.33.2340, SUCCINYL-COA:3-KETOACID-COENZYME A TRANSFERASE, MIT[…], PUTATIVE", "value": 1.09}, {"measurement": "fold change relative to vehicle control", "setting": "protein LMJF.33.2440, HY[…], CONSERVED", "value": 1.07}, {"measurement": "fold change relative to vehicle control", "setting": "protein LMJF.33.2540, CARBOXYPEPTIDASE, PUTATIVE,METALLO-PEPTIDASE, CLAN MA(E), FAMILY M32", "value": 1.95}, {"measurement": "fold change", "setting": "protein LMJF.33.3150 40S RIBOSOMAL PROTEIN S13, PUTATIVE", "value": 0.89}, {"measurement": "fold change relative to vehicle control", "setting": "protein LMJF.34.0140, MALATE DEHYDROGENASE", "value": 1.53}, {"measurement": "fold change vs vehicle control", "setting": "protein LMJF.34.0440 RIBOSOMAL PROTEIN S25", "value": 1.25}, {"measurement": "fold change relative to vehicle control", "setting": "protein LMJF.34.2580, HY[…], CONSERVED (ALBA-domain protein 3)", "value": 1.01}, {"measurement": "fold change relative to vehicle control", "setting": "protein LMJF.34.3250, PUTATIVE PYRUVATE/INDOLE-PYRUVATE CARBOXYLASE, PUTATIVE", "value": 1.08}, {"measurement": "fold change", "setting": "protein LMJF.34.4370 20S PROTEASOME BETA 7 SUBUNIT, (PUTATIVE)", "value": 0.92}, {"measurement": "fold change vs vehicle control", "setting": "protein LMJF.34.4620 HYPOTHETICAL PROTEIN, CONSERVED", "value": 0.95}, {"measurement": "fold change", "setting": "protein LMJF.35.0070 PROHIBITIN, PUTATIVE", "value": 0.93}, {"measurement": "fold change vs vehicle control", "setting": "protein LMJF.35.0360 ENOYL-COA HYDRATASE/ISOMERASE FAMILY PROTEIN, CONSERVED", "value": 1.24}, {"measurement": "fold change", "setting": "protein LMJF.35.0370 ATP-DEPENDENT DEAD-BOX RNA HELICASE, PUTATIVE", "value": 0.97}, {"measurement": "fold change", "setting": "protein LMJF.35.0420 40S RIBOSOMAL PROTEIN S3A, PUTATIVE", "value": 1.03}]}
